Data on 41 compounds can be found in ChEMBL document CHEMBL3507680, “University of Dundee, Gates Library screen for HepG2 cell viability”.

Structures are written as SMILES.

A short description of the series: Human HepG2 cell viability assay in 384 well format. To be noted: HepG2 cells, read-out: Inhibition. The series is classed as toxicity, cell-based. Also on record: dose 125 nL, time 70.5 hour; concentration not given beside the values.

`Cc1cc(N2CCC(NC(=O)CCc3ccco3)CC2)nc(C)n1`: the cytotoxicity at 70.5 h was 11.4%.

`Cn1c(=O)oc2cc(Nc3nccnc3C#N)ccc21`: the cytotoxicity at 70.5 h was -2.2%.

On to `CN(C)CCNC(=O)Nc1cccc(C[S+]([O-])Cc2ccccc2)c1` (stereo unspecified), for which the cytotoxicity at 70.5 h is -2.04%.

Regarding `CC1(C)CN(CC(F)(F)F)CCN1CC(=O)NC1CC1`, the cytotoxicity at 70.5 h is -6.02%.

Take `CC(NC(=O)c1cccs1)C(=O)NS(=O)(=O)c1ccc(C#N)cc1` (stereo unspecified): the cytotoxicity at 70.5 h was -5.58%.

Take `COc1c(CNCc2cccnc2OC2CCCC2)c(C)nn1C`: the cytotoxicity at 70.5 h is -1.47%.

For `COc1ccc(Cl)cc1-c1cc(NC(=O)CNC(=O)C2CC2)[nH]n1`, the cytotoxicity at 70.5 h was -7.16%.

Regarding `CCN(C(=O)CN(Cc1cccc(O)c1)C1CCC(O)CC1)C1CC1` (stereo unspecified), the cytotoxicity at 70.5 h was -2.83%.

`N#Cc1ccsc1C(=O)N1CCCCC1Cn1cccn1` (stereo unspecified): the cytotoxicity at 70.5 h turned out to be 9.01%.

With `CN1CCN(CCCN(C)S(=O)(=O)C2CCCCC2)CC1`, the cytotoxicity at 70.5 h is -1.58%.

For the compound `CCc1ccc(C(COC)NC(=O)c2ccc(O)nc2)o1` (stereo unspecified), the cytotoxicity at 70.5 h was -6.34%.

Take `COC(=O)NCc1ccc(NC(=O)CC2=CCCCC2)cc1`: the cytotoxicity at 70.5 h came out at 0.0251%.

Turning to `COCC(NC(=O)c1ccoc1)c1ccc(C)o1` (stereo unspecified), the cytotoxicity at 70.5 h was -2.43%.

With `CCC(C)(NCc1ncc(C(C)C)o1)c1nccs1` (stereo unspecified), the cytotoxicity at 70.5 h came to 1.37%.

With `CCC1CN(C(=O)COc2ccc(C)nc2)CCO1` (stereo unspecified), the cytotoxicity at 70.5 h worked out at 0.326%.

On to `CC(Cn1cccn1)NC(=O)NCCCN1CCc2ccccc21` (stereo unspecified), for which the cytotoxicity at 70.5 h is -0.512%.

In the case of `CC(=O)NCCCNCc1cc(F)ccc1Br`, the cytotoxicity at 70.5 h is 15%.

`CCOC(=O)NC1CCCN(Cc2ccc(-n3cncn3)c(C)c2)C1` (stereo unspecified): the cytotoxicity at 70.5 h was -0.7%.

`CN(C)C(=O)COc1ccccc1CN1CCOC2(CCCC2)C1`: the cytotoxicity at 70.5 h came to 0.31%.

On to `CN1CCN(c2ccc(NC(=O)c3ccccn3)c(C(F)(F)F)c2)CC1`, for which the cytotoxicity at 70.5 h is -5.99%.

Turning to `CCN1CCN(CC(O)c2cc(Cl)ccc2Cl)CC1` (stereo unspecified), the cytotoxicity at 70.5 h was -8.52%.

As for `Cc1ccc(-c2nn3c(nc2=O)-c2ccccc2NC3C(=O)O)cc1C` (stereo unspecified), the cytotoxicity at 70.5 h came out at 3.4%.

As for `OCCN1CCN(CC(O)c2cc(Cl)ccc2Cl)CC1` (stereo unspecified), the cytotoxicity at 70.5 h is -3.64%.

Consider `COc1ccccc1C(C)Nc1ncc(C(N)=O)cc1Cl` (stereo unspecified), for which the cytotoxicity at 70.5 h is -9.04%.

As for `COc1ccc(C(C)Nc2ncc(C(N)=O)cc2Cl)cc1OC` (stereo unspecified), the cytotoxicity at 70.5 h was -10.8%.

Regarding `O=C(CSc1nnc[nH]1)NCc1sccc1Br`, the cytotoxicity at 70.5 h is -5.23%.

Turning to `Cc1ccccc1C(NC(=O)CNC(=O)c1ccoc1C)C(C)C` (stereo unspecified), the cytotoxicity at 70.5 h worked out at 11.7%.

As for `Cc1cc(N2CCCC(OC(=O)CCc3cnn(C)c3)C2)nc(C)n1` (stereo unspecified), the cytotoxicity at 70.5 h was -11.2%.

As for `Cc1cc(CS(=O)(=O)NC2CCCc3ccccc32)on1` (stereo unspecified), the cytotoxicity at 70.5 h was -1.17%.

Consider `CN(C)CCN(C)C(=O)Nc1cc(F)cc(N2CCCC2)c1`, for which the cytotoxicity at 70.5 h was -6.32%.

Regarding `CC(C#N)NS(=O)(=O)c1ccc2c(c1)N(C)CCC2` (stereo unspecified), the cytotoxicity at 70.5 h was -0.913%.

Turning to `CC(=O)NS(=O)(=O)c1ccc2c(c1)N(C)CCC2`, the cytotoxicity at 70.5 h is -5.49%.

`Cc1cccc(NS(=O)(=O)c2ccc(C#N)nc2)c1C#N`: the cytotoxicity at 70.5 h is -4.92%.

As to `CCOCC(=O)N(C)c1ccc(F)c(Cl)c1`, the cytotoxicity at 70.5 h was -2.55%.

`CN1CCCc2ccc(S(=O)(=O)NC(=O)C3CC=CC3)cc21`: the cytotoxicity at 70.5 h is -3.77%.

Regarding `Cc1noc(C)c1CN(C)C(C)c1cccs1` (stereo unspecified), the cytotoxicity at 70.5 h was -3.21%.

On to `Cc1ccc(NC(=O)N2CCCC(O)C2)c(Br)c1` (stereo unspecified), for which the cytotoxicity at 70.5 h amounted to 6.64%.

With `CC(C)(C)NC(=O)C1CSCN1C(=O)CCc1ccco1` (stereo unspecified), the cytotoxicity at 70.5 h was -0.786%.

For the compound `CC(C)NC(=O)Nc1ccc(-c2nc(C(C)C)no2)cc1`, the cytotoxicity at 70.5 h is -8.44%.

On to `COc1c(CNC2(c3noc(C)n3)CCC2)c(C(C)C)nn1C`, for which the cytotoxicity at 70.5 h is -0.972%.

On to `Cc1sc(CN)nc1-c1ccc(Cl)cc1`, for which the cytotoxicity at 70.5 h came to 4.14%.
